Holding throughout (type): biochemical
For assay [1], the target named is CDK7/cyclinH/MAT1 (h) (Homo sapiens, UniProt P50613). As to the kind of experiment: Kinase profiling C3.8 CDK7/cyclinH/MAT1 human. The settings on record: CDK7/cyclinH/MAT1, test concentration of 10^−6 M. On the procedure:
(§1) The in vitro inhibition of a panel of kinases was assessed using either the glass-fiber filter technology as described by Davies, S. P. et al., Biochem J. (2000), 351; p. 95-105. In the glass-fiber filter technology the activity of the kinase of interest is measured using an appropriate substrate that is incubated with the aforementioned kinase protein in the presence of (^33P) radiolabeled ATP. (^33P) Phosporylation of the substrate is subsequently measured as radioactivity bound on a glassfiber-filter.
(§2) All kinases are pre-diluted to a 10× working concentration prior to addition into the assay. The composition of the dilution buffer for each kinase is detailed below.
(§3) All substrates are dissolved and diluted to working stocks in de-ionised water, apart from histone H1 that is stored in 10× working stock in 20 mM MOPS pH 7.4.
(§4) In a final reaction volume of 25 μl, CDK7/cyclinH/MAT1 (h) (5-10 mU) is incubated with 8 mM MOPS pH 7.0, 0.2 mM EDTA, 500 μM peptide, 10 mM MgAcetate and [γ-^33P-ATP] (specific activity approx. 500 cpm/pmol, concentration as required). The reaction is initiated by the addition of the MgATP mix. After incubation for 40 minutes at room temperature, the reaction is stopped by the addition of 5 μl of a 3% phosphoric acid solution. 10 μl of the reaction is then spotted onto a P30 filtermat and washed three times for 5 minutes in 75 mM phosphoric acid and once in methanol prior to drying and scintillation counting.

For assay [2], the target named is CDK6/cyclinD3 human (Homo sapiens, UniProt Q00534). As to the kind of experiment: Kinase profiling C3.7 CDK6/cyclinD3 human. The note with it: CDK6/cyclinD3, test concentration of 10^−6 M. On the procedure:
as §1, §2, §3
as §4, with “CDK6/cyclinD3 human” for “CDK7/cyclinH/MAT1 (h)”, “0.1 mg/ml histone H1,” for “500 μM peptide,”

Assay [3] concerns the target CDK2/cyclinE (h) (Homo sapiens, UniProt P24941). Nature of the assay: Kinase profiling C3.4 CDK2/cyclinE human. The settings on record: test concentration of 10^−6 M. On the procedure: as §1, §2, §3
as §4, with “CDK2/cyclinE” for “CDK7/cyclinH/MAT1”, “0.1 mg/ml histone H1,” for “500 μM peptide,”

Assay [4] deals with CDK5/p35 human (Homo sapiens, UniProt Q00535). Nature of the assay: Kinase profiling C3.6 CDK5/p35 human. The settings on record: CDK5/p35, test concentration of 10^−6 M. The method, then: as §1, §2, §3
CDK5/p35 human, sequence (Q00535 whole entry): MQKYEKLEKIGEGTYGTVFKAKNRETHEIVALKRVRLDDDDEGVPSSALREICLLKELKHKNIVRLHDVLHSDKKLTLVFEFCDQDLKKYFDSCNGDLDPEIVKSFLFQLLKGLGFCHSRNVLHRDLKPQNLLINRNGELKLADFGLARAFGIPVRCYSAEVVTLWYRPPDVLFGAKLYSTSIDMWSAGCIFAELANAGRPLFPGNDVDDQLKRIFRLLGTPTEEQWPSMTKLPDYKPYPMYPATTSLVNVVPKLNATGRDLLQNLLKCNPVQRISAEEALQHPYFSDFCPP
CDK5/p35 human, sequence (Q15078 whole entry partner): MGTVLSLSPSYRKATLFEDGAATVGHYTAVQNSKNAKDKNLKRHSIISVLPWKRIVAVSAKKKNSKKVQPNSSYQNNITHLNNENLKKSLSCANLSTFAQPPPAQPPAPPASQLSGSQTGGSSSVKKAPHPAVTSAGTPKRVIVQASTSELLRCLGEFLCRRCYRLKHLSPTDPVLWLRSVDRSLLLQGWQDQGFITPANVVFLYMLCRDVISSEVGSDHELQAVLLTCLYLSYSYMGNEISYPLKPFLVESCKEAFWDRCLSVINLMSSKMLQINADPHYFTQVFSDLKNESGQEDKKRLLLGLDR
as §4, with “CDK5/p35 human” for “CDK7/cyclinH/MAT1 (h)”, “0.1 mg/ml histone H1,” for “500 μM peptide,”

Assay [5] has as its target GSK-3β (Homo sapiens, UniProt P49841). As to the kind of experiment: GSK-3 kinase assay (C1), GSK-3β. The settings on record: 1 μM ATP, read-out: C1 Score β. On the procedure:
(§5) In vitro GSK-3 assays were performed at room temperature in a 100 μl reaction volume of 25 mM Tris (pH 7.4) containing 10 mM MgCl2.6H2O, 1 mM DTT, 0.1 mg/ml BSA, 5% glycerol, 5.7 ng/μl GSK-3β or 0.25 ng/μl GSK-3α, 5 μM biotinylated CREB peptide, 1 μM ATP, 0.85 μCi/ml ^33P-ATP and a suitable amount of a test compound. After one hour, the reaction was terminated by adding 70 μl of Stop mix (0.1 mM ATP, 5 mg/ml streptavidin coated PVT SPA beads, pH 11.0). The beads were allowed to settle overnight and the radioactivity attached to the beads was counted in a microtiter plate scintillation counter and compared with the results obtained in a control experiment (without the presence of a test compound) in order to determine the percentage of GSK-3 inhibition. The IC50 value, i.e. the concentration (M) of the test compound at which 50% of GSK-3 is inhibited, was calculated from the dose response curve obtained by performing the above-described GSK-3 assay in the presence of different amounts of the test compound. Score 1=pIC50 value<6, Score 2=pIC50 value from 6-7, Score 3=pIC50 value from 7-8, Score 4=pIC50 value>8.

Assay [6] concerns the target GSK-3α (Homo sapiens, UniProt P49840). Nature of the assay: GSK-3 kinase assay (C1), GSK-3α. The settings on record: 1 μM ATP, read-out: C1 Score α. On the procedure:
as §5

The target in assay [7] is CDK3/cyclinE (h) (Homo sapiens, UniProt Q00526). As to the kind of experiment: Kinase profiling C3.5 CDK3/cyclinE human. The note with it: test concentration of 10^−6 M. The method, then:
as §1, §2, §3
as §4, with “CDK3/cyclinE” for “CDK7/cyclinH/MAT1”, “0.1 mg/ml histone H1,” for “500 μM peptide,”

The target of assay [8] is CDK1/cyclinB (h) (Homo sapiens, UniProt P06493). As to the kind of experiment: Kinase profiling C3.2 CDK1/cyclinB human. The note with it: test concentration of 10^−6 M. The method, then:
as §1, §2, §3
as §4, with “CDK1/cyclinB” for “CDK7/cyclinH/MAT1”, “0.1 mg/ml histone H1,” for “500 μM peptide,”

The target in assay [9] is CDK2/cyclinA (h) (Homo sapiens, UniProt P24941). Nature of the assay: Kinase profiling C3.3 CDK2/cyclinA human. The note with it: test concentration of 10^−6 M. The method, then: as §1, §2, §3
as §4, with “CDK2/cyclinA” for “CDK7/cyclinH/MAT1”, “0.1 mg/ml histone H1,” for “500 μM peptide,”

GSK-3α, sequence (P49840 whole entry, species assumed): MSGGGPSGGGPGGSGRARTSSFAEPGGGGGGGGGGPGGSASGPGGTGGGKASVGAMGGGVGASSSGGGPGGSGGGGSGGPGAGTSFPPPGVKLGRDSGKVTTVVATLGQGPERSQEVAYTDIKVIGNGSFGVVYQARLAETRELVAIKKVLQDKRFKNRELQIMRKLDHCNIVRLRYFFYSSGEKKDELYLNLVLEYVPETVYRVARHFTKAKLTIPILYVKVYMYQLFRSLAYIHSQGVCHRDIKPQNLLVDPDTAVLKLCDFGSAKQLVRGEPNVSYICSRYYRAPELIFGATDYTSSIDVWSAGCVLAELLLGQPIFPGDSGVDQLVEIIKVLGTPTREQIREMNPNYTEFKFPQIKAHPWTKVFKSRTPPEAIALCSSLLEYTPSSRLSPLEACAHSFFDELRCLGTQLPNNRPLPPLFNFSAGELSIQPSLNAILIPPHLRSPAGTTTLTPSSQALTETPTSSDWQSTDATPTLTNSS
CDK6/cyclinD3 human, sequence (Q00534 whole entry): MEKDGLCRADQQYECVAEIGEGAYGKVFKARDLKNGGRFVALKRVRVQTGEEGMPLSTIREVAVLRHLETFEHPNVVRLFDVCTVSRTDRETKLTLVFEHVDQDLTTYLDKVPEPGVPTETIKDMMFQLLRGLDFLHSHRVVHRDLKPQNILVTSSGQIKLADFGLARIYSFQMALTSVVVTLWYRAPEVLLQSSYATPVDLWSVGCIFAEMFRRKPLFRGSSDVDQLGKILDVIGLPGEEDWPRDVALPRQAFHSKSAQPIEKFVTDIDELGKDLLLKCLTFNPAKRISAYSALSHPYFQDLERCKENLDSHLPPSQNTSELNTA
CDK6/cyclinD3 human, sequence (P30281 whole entry partner): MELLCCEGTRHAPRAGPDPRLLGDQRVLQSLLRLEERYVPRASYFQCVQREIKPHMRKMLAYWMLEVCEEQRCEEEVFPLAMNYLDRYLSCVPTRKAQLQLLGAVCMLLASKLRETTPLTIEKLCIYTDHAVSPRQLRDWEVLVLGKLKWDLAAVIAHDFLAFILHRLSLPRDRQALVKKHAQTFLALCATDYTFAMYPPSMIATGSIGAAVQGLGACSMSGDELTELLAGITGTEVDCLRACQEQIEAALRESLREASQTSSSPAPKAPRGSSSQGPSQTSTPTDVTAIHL
GSK-3β, sequence (P49841 whole entry, species assumed): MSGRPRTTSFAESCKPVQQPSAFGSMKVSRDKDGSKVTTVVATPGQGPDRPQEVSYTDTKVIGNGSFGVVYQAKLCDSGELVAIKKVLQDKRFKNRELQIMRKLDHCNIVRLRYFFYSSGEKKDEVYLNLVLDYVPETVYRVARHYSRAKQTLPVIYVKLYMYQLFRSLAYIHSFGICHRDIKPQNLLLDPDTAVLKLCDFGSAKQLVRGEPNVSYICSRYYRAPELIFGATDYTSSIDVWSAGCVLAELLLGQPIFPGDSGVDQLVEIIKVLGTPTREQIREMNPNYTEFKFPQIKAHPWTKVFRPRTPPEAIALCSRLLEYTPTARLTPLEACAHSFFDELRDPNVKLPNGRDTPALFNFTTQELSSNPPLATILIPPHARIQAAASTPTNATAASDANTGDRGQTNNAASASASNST
CDK7/cyclinH/MAT1 (h), sequence (P50613 whole entry): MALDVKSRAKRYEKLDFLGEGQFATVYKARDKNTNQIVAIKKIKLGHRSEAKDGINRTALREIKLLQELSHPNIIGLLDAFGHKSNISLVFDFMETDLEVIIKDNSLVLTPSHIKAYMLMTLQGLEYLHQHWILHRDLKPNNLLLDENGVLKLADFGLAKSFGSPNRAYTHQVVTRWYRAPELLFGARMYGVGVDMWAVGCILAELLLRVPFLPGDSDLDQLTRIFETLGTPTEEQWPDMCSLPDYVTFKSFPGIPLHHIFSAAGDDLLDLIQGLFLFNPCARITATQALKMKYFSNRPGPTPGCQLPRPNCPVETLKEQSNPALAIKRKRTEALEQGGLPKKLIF
CDK7/cyclinH/MAT1 (h), sequence (P51946 whole entry partner): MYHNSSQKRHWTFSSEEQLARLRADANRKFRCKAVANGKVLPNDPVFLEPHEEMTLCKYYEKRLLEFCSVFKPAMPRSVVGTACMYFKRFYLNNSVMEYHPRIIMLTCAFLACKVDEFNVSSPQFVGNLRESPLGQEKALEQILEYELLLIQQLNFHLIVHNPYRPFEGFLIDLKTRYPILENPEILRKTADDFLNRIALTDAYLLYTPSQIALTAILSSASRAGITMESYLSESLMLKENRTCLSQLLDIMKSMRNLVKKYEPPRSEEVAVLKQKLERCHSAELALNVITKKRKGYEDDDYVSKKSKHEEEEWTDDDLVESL
CDK7/cyclinH/MAT1 (h), sequence (P51948 whole entry partner): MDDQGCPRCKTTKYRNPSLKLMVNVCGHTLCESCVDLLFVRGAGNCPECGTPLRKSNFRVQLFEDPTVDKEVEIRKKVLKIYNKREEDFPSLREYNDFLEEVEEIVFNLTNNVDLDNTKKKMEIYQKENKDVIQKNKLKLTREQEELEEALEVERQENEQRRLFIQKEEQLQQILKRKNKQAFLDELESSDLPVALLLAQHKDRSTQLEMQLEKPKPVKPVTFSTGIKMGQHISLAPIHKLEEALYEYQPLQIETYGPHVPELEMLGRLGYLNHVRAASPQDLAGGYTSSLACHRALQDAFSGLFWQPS
CDK1/cyclinB (h), sequence (P06493 whole entry): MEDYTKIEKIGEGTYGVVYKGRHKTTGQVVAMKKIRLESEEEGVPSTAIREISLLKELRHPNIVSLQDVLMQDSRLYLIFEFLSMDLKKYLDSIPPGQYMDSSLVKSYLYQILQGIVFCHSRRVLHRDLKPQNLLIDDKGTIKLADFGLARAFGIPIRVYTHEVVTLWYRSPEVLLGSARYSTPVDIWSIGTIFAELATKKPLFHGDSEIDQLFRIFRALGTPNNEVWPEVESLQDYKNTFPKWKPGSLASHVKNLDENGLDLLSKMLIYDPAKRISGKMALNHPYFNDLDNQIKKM
CDK1/cyclinB (h), sequence (P14635 whole entry partner): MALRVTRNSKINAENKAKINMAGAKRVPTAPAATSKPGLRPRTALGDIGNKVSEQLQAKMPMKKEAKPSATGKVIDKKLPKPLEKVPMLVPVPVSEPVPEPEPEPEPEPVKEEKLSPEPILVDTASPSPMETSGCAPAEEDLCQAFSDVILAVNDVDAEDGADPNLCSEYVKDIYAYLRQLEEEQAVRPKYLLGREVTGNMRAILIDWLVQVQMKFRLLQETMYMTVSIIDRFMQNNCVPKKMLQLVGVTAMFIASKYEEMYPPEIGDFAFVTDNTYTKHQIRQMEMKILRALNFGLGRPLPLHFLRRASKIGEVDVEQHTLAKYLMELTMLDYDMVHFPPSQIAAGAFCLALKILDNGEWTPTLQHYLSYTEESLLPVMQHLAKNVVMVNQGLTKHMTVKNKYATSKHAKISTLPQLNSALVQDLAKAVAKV

As to `CN1CCCC(=O)NCCc2cccc(c2)Nc2ncnc(n2)-c2ccnc(c2)CCC1` [Compound 24], in assay [1], the C3.8 score was 3 (Score 3 = 60-80% inhibition). Further, the C3.7 score in [2] is reported as 1 (Score 1 = 10-30% inhibition). Besides, the C3.4 score in assay [3] is 3 (Score 3 = 60-80% inhibition). Besides, in [4], the C3.6 score is on record as 2 (Score 2 = 30-60% inhibition). In addition, the IC50 fell in the range of 10 to 100 nM in assay [5] and 100 to 1000 nM in assay [6]. Besides, in [7], the C3.5 score is given as 2 (Score 2 = 30-60% inhibition). Also, in [8], the C3.2 score is reported as 2 (Score 2 = 30-60% inhibition). In addition, the C3.3 score in assay [9] is listed as 3 (Score 3 = 60-80% inhibition).

For the molecule `O=C1CCN2CCN(CC2)Cc2cc(Cl)cc(c2)Nc2ncnc(n2)-c2ccnc(c2)CCCN1` [Compound 37], the C3.8 score in assay [1] is given as 3 (Score 3 = 60-80% inhibition). For the same molecule, the C3.7 score in [2] is reported as 2 (Score 2 = 30-60% inhibition). Besides, in assay [3], the C3.4 score was 4 (Score 4 = >80% inhibition). In addition, in assay [4], the C3.6 score is on record as 4 (Score 4 = >80% inhibition). Further, the IC50 in assay [5] and in assay [6] was 10 to 100 nM each time. Besides, the C3.5 score in assay [7] is listed as 4 (Score 4 = >80% inhibition). Further, in assay [8], the C3.2 score is 4 (Score 4 = >80% inhibition). For the same molecule, in [9], the C3.3 score is recorded as 4 (Score 4 = >80% inhibition).

Turning to `O=C1NCCc2cccc(c2)Nc2ncnc(n2)-c2ccnc(c2)CCCN2CCCC1C2` (centres unmarked) [Compound 26], the C3.8 score in assay [1] was 2 (Score 2 = 30-60% inhibition). In [2], the C3.7 score is listed as 1 (Score 1 = 10-30% inhibition). Besides, the C3.4 score in assay [3] is on record as 4 (Score 4 = >80% inhibition). In assay [4], the C3.6 score was 2 (Score 2 = 30-60% inhibition). The IC50 in assay [5] and in assay [6] was 10 to 100 nM each time. Besides, the C3.5 score in assay [7] was 3 (Score 3 = 60-80% inhibition). Also, the C3.2 score in [8] was 1 (Score 1 = 10-30% inhibition). Also, the C3.3 score in assay [9] is 3 (Score 3 = 60-80% inhibition).

For `O=C1NCCNc2cc(ccn2)-c2ncnc(n2)Nc2cccc(c2)CN2CCC[C@H]12` [Compound 18], in [1], the C3.8 score is reported as 2 (Score 2 = 30-60% inhibition). In addition, the C3.7 score in assay [2] is on record as 1 (Score 1 = 10-30% inhibition). The C3.4 score in [3] was 4 (Score 4 = >80% inhibition). Besides, the C3.6 score in assay [4] is 2 (Score 2 = 30-60% inhibition). For the same molecule, the IC50 in [5] and in assay [6] was 100 to 1000 nM each time. In assay [7], the C3.5 score is 3 (Score 3 = 60-80% inhibition). Besides, in [8], the C3.2 score is 3 (Score 3 = 60-80% inhibition). In addition, the C3.3 score in [9] is 4 (Score 4 = >80% inhibition).

`O=C1CN2CCN(CC2)Cc2cccc(c2)Nc2ncnc(n2)-c2cccc(c2)NCCN1` [Compound 58]: in assay [2], the C3.7 score was 1 (Score 1 = 10-30% inhibition). In addition, in assay [3], the C3.4 score is 2 (Score 2 = 30-60% inhibition). The C3.6 score in [4] is reported as 2 (Score 2 = 30-60% inhibition). Besides, the IC50 in [6] is 10 to 100 nM. Besides, the C3.5 score in assay [7] is 1 (Score 1 = 10-30% inhibition). Moreover, the C3.2 score in assay [8] is recorded as 2 (Score 2 = 30-60% inhibition). Further, the C3.3 score in assay [9] is 3 (Score 3 = 60-80% inhibition).

As to `O=C1NCCCc2cc(ccn2)-c2ncnc(n2)Nc2cc(Cl)cc(c2)CN2CCC[C@@H]12` [Compound 38], the C3.8 score in assay [1] is listed as 3 (Score 3 = 60-80% inhibition). Besides, the C3.4 score in assay [3] is reported as 4 (Score 4 = >80% inhibition). Further, the C3.6 score in [4] is 2 (Score 2 = 30-60% inhibition). For the same molecule, the IC50 in [5] and in assay [6] was 100 to 1000 nM throughout. Also, the C3.5 score in assay [7] is listed as 3 (Score 3 = 60-80% inhibition). Moreover, the C3.2 score in assay [8] is on record as 4 (Score 4 = >80% inhibition). For the same molecule, the C3.3 score in assay [9] is on record as 4 (Score 4 = >80% inhibition).

Take `O=C1NCCCc2cc(ccn2)-c2ncnc(n2)Nc2cc(Cl)cc(c2)CN2CCCC1C2` (centres unmarked) [Compound 39]: the C3.8 score in assay [1] was 3 (Score 3 = 60-80% inhibition). Moreover, in [3], the C3.4 score is recorded as 3 (Score 3 = 60-80% inhibition). In addition, the C3.6 score in assay [4] is given as 1 (Score 1 = 10-30% inhibition). For the same molecule, the IC50 in [5] fell in the range of 10 to 100 nM; in assay [6], 100 to 1000 nM. For the same molecule, the C3.5 score in [7] was 2 (Score 2 = 30-60% inhibition). The C3.2 score in [8] is 2 (Score 2 = 30-60% inhibition). The C3.3 score in [9] is recorded as 3 (Score 3 = 60-80% inhibition).

These data come from patent publication US8778919B2, “Cyclic anilino—pyridinotriazines” (Janssen Pharmaceutica NV, priority 2005, dated 2014).
